Test results taken from PMC7278359, “Small molecule AX-024 reduces T cell proliferation independently of CD3ϵ/Nck1 interaction, which is governed by a domain swap in the Nck1-SH3.1 domain” (The Journal of Biological Chemistry, 2020).
Entries after “also recorded” stand apart in the source; their conditions may differ.

Columns and labels:
T cell proliferation = settings: response to weak antigens; ref [10]; cited from earlier work
Source text: (§1) The objective of the present study was to initiate development of an inhibitor of the Nck/TCR interaction, specifically by blocking binding of the first SH3 domain in Nck (Nck1-SH3.1) to the PRS in the CD3ϵ subunit of the TCR.

Nck1-SH3.1 [1] = settings: in vitro; ref [10]; cited from earlier work
Source text: as §1

dimeric Nck1-SH3.1 = experiment: Ligand-observed NMR with dimeric Nck1-SH3.1; assay type: binding, human; settings: 50 μM ligand, 10 μM dimeric Nck1-SH3.1 (residues 1–61), pH 6.5, 150 mM NaCl, 27 °C
Protocol: NMR spectra were recorded on a Bruker 600-MHz Avance NEO spectrometer equipped with a cryogenic QCI probe head at 27 °C in 25 mM […], 150 mM NaCl. The Topspin 4.0 software (Bruker, Fällanden) was used for spectrometer operation and data processing. For ^1H ligand-observed measurements, a relaxation filtered pulse sequence utilizing a spinlock of 50 ms was applied. 1D spectra were acquired with 128 scans, a sweep width of 26 ppm, and an acquisition time of 2 s. 2D ^1H-^15N HSQC spectra with natural ^15N isotope abundance were recorded over 72 h with a spectral width of 16 ppm and 35 ppm in the proton and nitrogen dimensions, respectively, with 256 increments (complex) and 1000 scans per increment. A relaxation delay of 1 s was used between scans. For the DOSY measurements (reviewed in Ref. [51]), the Bruker pulse sequence ledbpgp2s with a diffusion delay of 50 ms and a gradient length of 600 μs was used. The gradient strength was varied from 5 to 95% to record 16 increments of 512 scans with a sweep width of 18 ppm and a relaxation delay of 1 s.
Samples for ligand-observed measurements were prepared in 25 mM sodium phosphate buffer, pH 6.5, 150 mM NaCl. One sample contained 50 μM AX-024, and the other contained 50 μM CD3ϵ peptide.

Muscarinic M1 = experiment: Selectivity panel (Eurofins, CEREP); assay type: binding; settings: 10 μM AX-024, single point; human receptor; radioactive antagonist ligand
Protocol: (§2) AX-024 was submitted to a selectivity panel comprising 50 recurring off-targets, including G protein–coupled receptors, channels, transporters, and metabolic enzymes (Eurofins, CEREP).
(§3) Supplemental Table 1: SPR peptide titrations
(§4) Single point measurements at 10 μM for 50 targets in a selectivity panel.
(§5) human receptors, except for the Ca2+ channel, which is from rat. A radioactive antagonist ligand was used
(§6) for the detection. The tests were conducted by Euro fins (https://www.eurofinsdiscoveryservices.com ).

Histamine H3 = experiment: Selectivity panel (Eurofins, CEREP); assay type: binding; settings: 10 μM AX-024, single point; human receptor; radioactive antagonist ligand
Protocol: as §2, §3, §4, §5, §6

Dopamine D1 = experiment: Selectivity panel (Eurofins, CEREP); assay type: binding; settings: 10 μM AX-024, single point; human receptor; radioactive antagonist ligand
Protocol: as §2, §3, §4, §5, §6

α 1A adrenoreceptor = experiment: Selectivity panel (Eurofins, CEREP); assay type: binding; settings: 10 μM AX-024, single point; human receptor; radioactive antagonist ligand
Protocol: as §2, §3, §4, §5, §6

5-HT2B = experiment: Selectivity panel (Eurofins, CEREP); assay type: binding; settings: 10 μM AX-024, single point; human receptor; radioactive antagonist ligand
Protocol: as §2, §3, §4, §5, §6

[2] = tested on: Ca2+ channel (CaV1.2) (L, diltiazem site); experiment: Selectivity panel (Eurofins, CEREP); assay type: binding; settings: probe radioactive antagonist ligand, 10 μM AX-024, single point, rat Ca2+ channel
Protocol: as §2, §3, §4, §5, §6

Muscarinic M2 = experiment: Selectivity panel (Eurofins, CEREP); assay type: binding; settings: 10 μM AX-024, single point; human receptor; radioactive antagonist ligand
Protocol: as §2, §3, §4, §5, §6

Nck1-SH3.1 [3] = target: T1, Nck1-SH3.1 (Homo sapiens, UniProt P16333); experiment: SPR binding to immobilized Nck1-SH3.1; settings: AX-024 up to 100 μM; 1260 RU; 20 °C, pH 7.8
T1 construct: His10-Avi-TEV-Nck1-SH3.1 (residues 1–61, MM 11,847 Da) was biotinylated and immobilized via streptavidin; made in house; host or cells: Escherichia coli BL21 (DE3)
Protocol: SPR experiments were conducted on a T200 Biacore instrument (GE Healthcare, Uppsala, Sweden) at 20 °C in 10 mM HEPES/NaOH, pH 7.8, 150 mM NaCl, 1 mM TCEP. […] Streptavidin is immobilized on the CAP sensor by way of double-strand DNA formation. A ssDNA is covalently coupled to the sensor surface, and a complementary DNA strand, covalently linked to streptavidin, is hybridized. To regenerate the surface, the DNA duplex is dissociated by washing with high-ionic strength solution. […] The reference channel for binding studies contained the same streptavidin-coated surface blocked with biotin.
Five replicates were performed for each CD3ϵ concentration (Table S1), whereas for the qualitative assessment of the APVA variant, only a single titration was performed.
SPR equilibrium signals were corrected for the signal in the reference channel and buffer contributions. The resulting SPR amplitudes were plotted as a function of peptide concentration, and a simple binding equation describing a Langmuir adsorption isotherm was fit to the data (GraphPad Prism) to extract the equilibrium dissociation constant Kd. (Eq. 1) RU=RUmax·[peptide]/[peptide]+Kd

[4] = tested on: P-Zap70 in primary T cells; experiment: Zap70 phosphorylation in primary T cells, flow cytometry; assay type: cell-based, human
Protocol: Figure 4. […] Healthy donor PBMCs were isolated rested overnight and pretreated with 20 μM AX-024 or vehicle prior to stimulation with 20 μg·ml^−1 (A) or 10 μg·ml^−1 (B) anti-CD3. The cells were gated on live cells, CD3, and CD4 for assessment of P-Zap70. Error bars, S.D.
Human PBMCs from healthy donors were prepared from 50 ml of fresh blood with Ficoll in Leucosep tubes. The tubes were centrifuged at room temperature (30 min, 800 × g) without brake. Isolated cells were washed and staved overnight. The cells were treated with AX-024 or vehicle and incubated for 1 h at 37 °C followed by further incubation on ice. 10, 25, or 50 μg·ml^−1 anti-CD3-biotin (clone OKT3, BioLegend) was added to the cells on ice for 15 min before neutravidin was added at a final concentration of 20 μg·ml^−1 for cross-linking. After stimulation for 3 min at 37 °C, cells were fixed (BD Cytofix fixation buffer) and permeabilized (TruePhos buffer, BioLegend). Staining was performed with CD3-PerCP (clone SK7, BD), CD4-BUV395 (clone SK3, BD), CD8-BV605 (clone RPAT8, BioLegend), and Zap70-PE (clone 65E4, CST). Flow cytometry and data analysis were done as described above.

## COc1ccc2c(c1)C(c1ccc(F)cc1)=C(CN1CCCC1)CO2.Cl [AX-024, 1-((4-(4-fluorophenyl)-6-methoxy-2H-chromen-3-yl)methyl)pyrrolidine hydrochloride]
T cell proliferation
  inhibition of T cell proliferation: inhibit T cell proliferation specifically in response to weak antigens
Nck1-SH3.1 [1]
  physical interaction with Nck1-SH3.1 (SPR and NMR): appeared to support physical interaction of AX-024 with the Nck1-SH3.1 domain
Dimeric Nck1-SH3.1
  ligand-observed NMR, spectral change / line broadening: do not show any spectral changes; also recorded: no interaction was observed
Muscarinic M1
  % inhibition: 95.0%
Histamine H3
  % inhibition: 95.1%
Dopamine D1
  % inhibition: 85.3%
α 1A adrenoreceptor
  % inhibition: 79.3%
5-HT2B
  % inhibition: 80.1%
[2]
  inhibition at 10 μM: 66.3%
Muscarinic M2
  % inhibition: 81.3%
Nck1-SH3.1 [3]
  direct binding to immobilized Nck1-SH3.1 by SPR: does not bind to Nck1-SH3.1; also recorded: no direct binding of AX-024 to immobilized Nck1-SH3.1 was detectable
[4]; PBMCs from healthy donors, 20 μM AX-024 pretreatment, 20 or 10 μg·ml^−1 anti-CD3, gated on live, CD3, CD4
  reduction of Zap70 phosphorylation: does not significantly reduce Zap70 phosphorylation
[4]; different stimulation conditions, low anti-CD3, no co-stimulation
  reduction of Zap70 phosphorylation: none of the conditions tested resulted in significant reduction of Zap70 phosphorylation
